Measured values as given in paper PMC7315563, “Bioactive fluorenes. Part III: 2,7-dichloro-9H-fluorene-based thiazolidinone and azetidinone analogues as anticancer and antimicrobial against multidrug resistant strains agents” (BMC Chemistry, 2020).
≈ marks a conversion by molar mass, not a printed value.

Experiments:
[1] = system: Staphylococcus aureus (S. aureus), multidrug resistant clinical isolate; test: agar well diffusion assay; type: cell-based; conditions: Staphylococcus aureus; S. aureus; 500 µg/mL of tested compound; 24 h
From the text: All microbial strains were kindly provided from the department of Medical Microbiology and Immunology faculty of Medicine Assiut University, these clinical isolates were obtained from clinical cases of infections admitted to Assiut University hospital as urinary tract infections, corneal ulcers, bacterial and fungal pneumonia, otomycosis, oral thrush and wound infections.
The clinical isolates used were multidrug resistant strains, they were resistant to β lactam (penicillin, amoxacillin, oxacillin), cephalosporins (cefazolin, cefaclor and cefepime) and macrolides (erythromycin and clarithromycin), they included Gram positive bacteria as Staphylococcus aureus (S. aureus), Methicillin-resistant Staphylococcus aureus (MRSA), Streptococcus pneumoniae (S. pneumoniae), and Gram negative bacteria as Escherichia coli (E. coli), Klebsiella pneumoniae (K. pneumoniae), Pseudomonas aeruginosa (P. aeruginosa), and Acinetobacter baumannii (A. baumannii). The fungal strains that were tested are Aspergillus flavus (A. flavus), A. niger (A. niger) and Candida albicans (C. albicans).
The antimicrobial activity of the fluorene derivatives was initially evaluated by agar well diffusion assay. Mueller–Hinton agar (CM0337) was poured into Petri dishes at 50–60 °C and left to solidify for 15 min. Subsequently, overnight microbial suspensions of tested strains was adjusted to turbidity of 0.5 McFarland Standard, which equals to 1–2 × 10^8 CFU/mL for bacteria and 1–5 × 10^6 for fungi. The microbial inoculums were then diluted in 1:100 ratio in case of bacteria and 1:10 ratio in case of fungi in order to get 1–5 × 10^5 CFU/mL. a sterile cotton swab was dipped into the adjusted microbial suspension and the Mueller–Hinton agar plates were inoculated by evenly streaking cotton swab over the agar medium. Then wells with a diameter of 0.5 cm were cut in the medium with a sterile cork borer. Stock solutions of the flourene derivatives were diluted in DMSO 1% to get 500 μg/mL concentrations. The tested flourene derivatives and controls (50 μL) were dispensed into the wells. The plates were incubated for 24 h at 37 °C for bacteria and C. albicans while at 25 °C for A. falvus and A. niger. The diameters of zones of inhibition (ZOI) around the wells were measured in mm. Following control agents were used: positive control agents—vancomycin (50 μg/mL) for Gram positive bacteria, gentamicin (10 μg/mL) (for Gram negative bacteria) and fluconazole 25 μg/mL for fungi and negative control agent is 1% DMSO.

[2] = system: A549 human lung cancer cells; test: cell viability assay (MTT); type: cell-based; conditions: 24 h; for viability at 1 µg/mL: read-out: Validity (%) for sample concentrations (µg/mL) 1; for viability at 10 µg/mL: read-out: Validity (%) for sample concentrations (µg/mL) 10; for viability at 31.25 µg/mL: read-out: Validity (%) for sample concentrations (µg/mL) 31.25; for viability at 62.5 µg/mL: 62.50 µg/mL, read-out: Validity (%) for sample concentrations (µg/mL) 62.50; for viability at 125 µg/mL: read-out: Validity (%) for sample concentrations (µg/mL) 125; for viability at 250 µg/mL: read-out: Validity (%) for sample concentrations (µg/mL) 250; for viability at 500 µg/mL: read-out: Validity (%) for sample concentrations (µg/mL) 500; for viability at 1000 µg/mL: read-out: Validity (%) for sample concentrations (µg/mL) 1000
Method: WI-38 normal lung fibroblast cells, A549 lung cancer cells, and MDA-MB-231 breast cancer cells were obtained from VACSERA—Cell Culture Unit, Cairo, Egypt. The cell lines were originally obtained from the American Tissue Culture Collection (ATCC). WI-38, A549, and MDA-MB-231 cell lines were cultured in RPMI-1640 medium supplemented with 10% inactivate fetal bovine serum (FBS) and 1% penicillin/streptomycin were bought (Gibco, Invitrogen, CA). WI-38, A549, and MDA-MB-231 cells were seeded into 96-well plates (at a density of 5000 cells/well). […] Cell viability was then assessed using the MTT assay (Sigma Aldrich, St. Louis, MO, USA), and the absorbance was read at 570 nm using an ELISA microplate reader (Molecular Devices, Downingtown, PA, USA).

[3] = system: WI-38 human normal fibroblast cells; test: cell viability assay (MTT); type: cell-based; conditions: 24 h; for viability at 31.25 µg/mL: read-out: Validity (%) for sample concentrations (µg/mL) 31.25; for viability at 62.5 µg/mL: 62.50 µg/mL, read-out: Validity (%) for sample concentrations (µg/mL) 62.50; for viability at 125 µg/mL: read-out: Validity (%) for sample concentrations (µg/mL) 125; for viability at 250 µg/mL: read-out: Validity (%) for sample concentrations (µg/mL) 250; for viability at 500 µg/mL: read-out: Validity (%) for sample concentrations (µg/mL) 500
Method: (§1) WI-38 normal lung fibroblast cells, A549 lung cancer cells, and MDA-MB-231 breast cancer cells were obtained from VACSERA—Cell Culture Unit, Cairo, Egypt. The cell lines were originally obtained from the American Tissue Culture Collection (ATCC). WI-38, A549, and MDA-MB-231 cell lines were cultured in RPMI-1640 medium supplemented with 10% inactivate fetal bovine serum (FBS) and 1% penicillin/streptomycin were bought (Gibco, Invitrogen, CA). WI-38, A549, and MDA-MB-231 cells were seeded into 96-well plates (at a density of 5000 cells/well). On the following day, cells were treated with different concentrations (0, 1, 10, 31.25, 62.5, 125, 250, 500 µg/mL) of 16 fluorene derivatives in fresh medium and incubated for another 24 h. Cell viability was then assessed using the MTT assay (Sigma Aldrich, St. Louis, MO, USA), and the absorbance was read at 570 nm using an ELISA microplate reader (Molecular Devices, Downingtown, PA, USA).

[4] = system: MDA-MB-231 human breast cancer cells; test: cell viability assay (MTT); type: cell-based; conditions: 24 h; for viability at 1 µg/mL: read-out: Validity (%) for sample concentrations (µg/mL) 1; for viability at 10 µg/mL: read-out: Validity (%) for sample concentrations (µg/mL) 10; for viability at 31.25 µg/mL: read-out: Validity (%) for sample concentrations (µg/mL) 31.25; for viability at 62.5 µg/mL: read-out: Validity (%) for sample concentrations (µg/mL) 62.5; for viability at 125 µg/mL: read-out: Validity (%) for sample concentrations (µg/mL) 125; for viability at 250 µg/mL: read-out: Validity (%) for sample concentrations (µg/mL) 250; for viability at 500 µg/mL: read-out: Validity (%) for sample concentrations (µg/mL) 500
Method: as §1

IC50 [2]	SMILES	zone of inhibition at 500 µg/mL [1]	viability at 1 µg/mL [2]	viability at 10 µg/mL [2]	viability at 31.25 µg/mL [2]	viability at 62.5 µg/mL [2]	viability at 125 µg/mL [2]	viability at 250 µg/mL [2]	viability at 500 µg/mL [2]	viability at 1000 µg/mL [2]	viability at 31.25 µg/mL [3]	viability at 62.5 µg/mL [3]	viability at 125 µg/mL [3]	viability at 250 µg/mL [3]	viability at 500 µg/mL [3]	IC50 [3]	viability at 1 µg/mL [4]	viability at 10 µg/mL [4]	viability at 31.25 µg/mL [4]	viability at 62.5 µg/mL [4]	further results
415 µg/mL (≈ 783 µM)	O=C1CSC(c2ccc(Cl)cc2)N1c1nc(-c2cc(Cl)cc3c2-c2ccc(Cl)cc2C3)cs1 (stereo not drawn) [5c, 2-(4-Chlorophenyl)-3-(4-(2,7-dichloro-9H-fluoren-4-yl)thiazol-2-yl)thiazolidin-4-one]	3 mm	91.2%	90.1%	89.2%	80.9%	62.6%	59.8%	46.3%	14.9%	89.7%	87.3%	83.8%	77.5%	71.3%	> 500 µg/mL	97.1%	95.7%	95.8%	92.1%	viability at 125 µg/mL [4]: 86.3%; viability at 250 µg/mL [4]: 84.5%; viability at 500 µg/mL [4]: 83%; IC50 [4]: > 500 µg/mL; melting point: 83 to 85 °C
574 µg/mL (≈ 999 µM)	O=C1CSC(c2ccc(Br)cc2)N1c1nc(-c2cc(Cl)cc3c2-c2ccc(Cl)cc2C3)cs1 (stereo not drawn) [5d, 2-(4-Bromophenyl)-3-(4-(2,7-dichloro-9H-fluoren-4-yl)thiazol-2-yl)thiazolidin-4-one]	4 mm	98.4%	91.7%	88.9%	82.2%	78.8%	73%	58.6%	18.1%	94.9%	88.5%	86.1%	50.7%	44.2%	268 µg/mL (≈ 467 µM)	96.8%	94.4%	93.7%	92.4%	viability at 125 µg/mL [4]: 88.4%; viability at 250 µg/mL [4]: 87.2%; viability at 500 µg/mL [4]: 85.7%; IC50 [4]: > 500 µg/mL; melting point: 155 to 157 °C
896 µg/mL (≈ 1720 µM)	O=C1CSC(C=Cc2ccccc2)N1c1nc(-c2cc(Cl)cc3c2-c2ccc(Cl)cc2C3)cs1 (stereo not drawn) [5i, 3-(4-(2,7-Dichloro-9H-fluoren-4-yl)thiazol-2-yl)-2-styrylthiazolidin-4-one]	10 mm	93.3%	92.2%	91.4%	85.6%	81.3%	76.9%	63.2%	49.3%	88.2%	86.9%	69.1%	63.1%	59.3%	> 500 µg/mL	96%	83.8%	61%	56.2%	viability at 125 µg/mL [4]: 52.2%; viability at 250 µg/mL [4]: 50.5%; viability at 500 µg/mL [4]: 46.1%; IC50 [4]: 334 µg/mL (≈ 640 µM); melting point: 114 to 116 °C
